Here are results for five compounds from US10421779B2, “Carbazole compound having anti-virus activity” (priority 2016, dated 2019).

What is called EC50 is the concentration giving half of the maximal effect.

Holding throughout (format): cell-based
In assay [1] the test system is hepatitis C virus double mutant L31V and Y93H of the NS5A region. As to the kind of experiment: Efficacy on resistant double mutant (L31V and Y93H). Conditions: read-out: EC50 Double mutant. The text has this: (§1) As a mutant resistant to hepatitis C virus, L31V and Y93H of the NS5A region, and double mutants thereof were applied.
Assay [2] concerns HCV genotype 1 b (HCV replicon system). As to the kind of experiment: HCV replicon system genotype 1b, Renilla luciferase activity. The conditions noted are these: Hepatitis C virus, 72 h; HCV genotype 1b replicon, Rluc, 3 days; read-out: Replicon EC50 1b type. A digest of the protocol: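 Genotype 1b replicon carrying Renilla luciferase and 1b non-structural genes, treated with compound at various concentrations. Luciferase activity read after 3 days relative to control to derive EC50.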

The subject of assay [3] is hepatitis C virus mutant L31V of the NS5A region. Put plainly: Efficacy on resistant mutant L31V. The conditions noted are these: read-out: EC50 L31V.
Text: as §1

The subject of assay [4] is hepatitis C virus mutant Y93H of the NS5A region. Put plainly: Efficacy on resistant mutant Y93H. The conditions noted are these: read-out: EC50 Y93H.
Text: as §1

Regarding `COC(=O)N[C@@H](C(=O)N1CCC[C@H]1C(=O)Nc1ccc2c3ccc(NC(=O)[C@@H]4CCCN4C(=O)[C@H](NC(=O)OC)c4ccccc4)cc3n(C(C)c3ccccc3)c2c1)c1ccccc1` (stereo partly drawn) [Example 15, dimethyl ((1R,1′R)-((2S,2′S)-(((9-(1-phenylethyl)-9H-carbazole-2,7-diyl)bis(azanediyl))bis(carbonyl))bis(pyrrolidine-2,1-diyl))bis(2-oxo-1-phenylethane-2,1-diyl))dicarbamate], the EC50 in assay [1] was above 1000 nM; in assay [2], 0.0157 nM; in assay [3], below 0.1 nM; in assay [4], 10 to 100 nM.
For `COC(=O)N[C@@H](C(=O)N1CCC[C@H]1C(=O)Nc1ccc2c3ccc(NC(=O)[C@@H]4CCCN4C(=O)[C@H](NC(=O)OC)c4ccccc4)cc3n(CC3CC3)c2c1)c1ccccc1` [Example 16, dimethyl ((1R,1′R)-((2S,2′S)-(((9-(cyclopropylmethyl)-9H-carbazole-2,7-diyl)bis(azanediyl))bis(carbonyl))bis(pyrrolidine-2,1-diyl))bis(2-oxo-1-phenylethane-2,1-diyl))dicarbamate], in that order: above 1000 nM, 0.0182 nM, 1 to 10 nM and 10 to 100 nM.
For `COC(=O)N[C@@H](C(=O)N1CCC[C@H]1C(=O)Nc1ccc2c3ccc(NC(=O)[C@@H]4CCCN4C(=O)[C@H](NC(=O)OC)c4ccccc4)cc3n(Cc3ccncc3)c2c1)c1ccccc1` [Example 19, dimethyl ((1R,1′R)-((2S,2′S)-(((9-(pyridine-4-ylmethyl)-9H-carbazole-2,7-diyl)bis(azanediyl))bis(carbonyl))bis(pyrrolidine-2,1-diyl))bis(2-oxo-1-phenylethane-2,1-diyl))dicarbamate], in that order: above 1000 nM, 0.243 nM, 1 to 10 nM and above 1000 nM.
For `COC(=O)N[C@@H](C(=O)N1CCC[C@H]1C(=O)Nc1ccc2c3ccc(NC(=O)[C@@H]4CCCN4C(=O)[C@H](NC(=O)OC)c4ccccc4)cc3n(Cc3cccc(C)n3)c2c1)c1ccccc1` [Example 20, dimethyl ((1R,1′R)-((2S,2′S)-(((9-((6-methylpyridine-2-yl)methyl)-9H-carbazole-2,7-diyl)bis(azanediyl))bis(carbonyl))bis(pyrrolidine-2,1-diyl))bis(2-oxo-1-phenylethane-2,1-diyl))dicarbamate], in that order: above 1000 nM, 0.222 nM, 10 to 100 nM and above 1000 nM.
On to `COCCn1c2cc(NC(=O)[C@@H]3CCCN3C(=O)[C@H](NC(=O)OC)c3ccccc3)ccc2c2ccc(NC(=O)[C@@H]3CCCN3C(=O)[C@H](NC(=O)OC)c3ccccc3)cc21` [Example 21, dimethyl ((1R,1′R)-((2S,2′S)-(((9-(2-methoxyethyl)-9H-carbazole-2,7-diyl)bis(azanediyl))bis(carbonyl))bis(pyrrolidine-2,1-diyl))bis(2-oxo-1-phenylethane-2,1-diyl))dicarbamate], for which the EC50 in assay [1] is above 1000 nM; in assay [2] it was 0.111 nM; in assay [3], 10 to 100 nM; in assay [4], 100 to 1000 nM.
